Like-named read-outs stand apart in the source and are kept apart here.
Target: mutant BRAF V600E (Homo sapiens, UniProt P15056, V600E)
Experiment: BRAF V600E HiBiT Degradation Assay in A375.10 cells
Conditions: for HiBIT-Degradation A375.10 BRAF 2 hours IP nM / DC50 / HiBIT-Degradation A375.10 BRAF 24 hours IP nM: A375.10 cells; for HiBIT-Degradation A375.10 BRAF 2 hours IP nM / HiBIT-Degradation A375.10 BRAF 24 hours IP nM: inflection point of the dose-response curve
[1] = read-out: HIBIT-Degradation A375.10 BRAF 2 hours DC50 nM, 2 hours
[2] = read-out: HiBIT-Degradation A375.10 BRAF 2 hours Emax
[3] = read-out: HiBIT-Degradation A375.10 BRAF 24 hours DC50 nM, 24 hours
[4] = read-out: HiBIT-Degradation A375.10 BRAF 24 hours Emax

Sequence of mutant BRAF V600E (P15056 whole entry V600E): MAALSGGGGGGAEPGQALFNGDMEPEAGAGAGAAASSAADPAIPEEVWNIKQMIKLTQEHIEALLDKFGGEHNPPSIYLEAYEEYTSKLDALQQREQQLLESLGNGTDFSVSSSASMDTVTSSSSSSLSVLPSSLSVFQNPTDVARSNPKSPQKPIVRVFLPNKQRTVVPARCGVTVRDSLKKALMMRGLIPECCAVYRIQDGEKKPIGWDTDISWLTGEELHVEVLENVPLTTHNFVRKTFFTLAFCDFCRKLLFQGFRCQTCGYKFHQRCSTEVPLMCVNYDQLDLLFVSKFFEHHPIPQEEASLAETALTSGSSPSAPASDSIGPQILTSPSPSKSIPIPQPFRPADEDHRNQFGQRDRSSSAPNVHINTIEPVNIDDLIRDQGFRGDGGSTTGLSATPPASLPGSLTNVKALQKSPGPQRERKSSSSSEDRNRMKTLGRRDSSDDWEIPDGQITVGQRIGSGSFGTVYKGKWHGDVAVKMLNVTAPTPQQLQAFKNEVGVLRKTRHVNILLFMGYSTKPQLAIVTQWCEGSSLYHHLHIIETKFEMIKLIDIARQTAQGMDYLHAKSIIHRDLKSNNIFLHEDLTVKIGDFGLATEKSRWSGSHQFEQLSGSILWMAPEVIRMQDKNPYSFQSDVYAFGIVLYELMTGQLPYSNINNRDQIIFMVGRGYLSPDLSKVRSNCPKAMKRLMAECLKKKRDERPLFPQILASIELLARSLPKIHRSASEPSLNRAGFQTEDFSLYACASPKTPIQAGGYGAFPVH
Protocol: Compounds of this invention were tested for degradation of mutant BRAF V600E using the HiBiT assay, a luminescence-based assay for quantification of cellular protein levels using the Nano-Glo@HiBiT Lytic Detection System (Catalog No. N3050, Promega, Madison, WI USA). This assay utilizes the HiBiT tag on a protein of interest, which creates a luminescent signal in the presence of a complementing peptide and its substrate, the quantification of which 10 is proportional to the amount of HiBiT-tagged protein in the cell.
A375 cells were engineered to express HiBiT tagged BRAF V600E by CRISPR knock-in of the HiBiT tag to the endogenous BRAF V600E locus, followed by selection of a clonal population containing 15 the appropriate knock-in (referred to here as cell line A375.10). […] Cell culture flasks and 384-well microplates 20 were acquired from VWR (Radnor, PA, USA).
Plates were then spun briefly, and cells were incubated with compound at 37° C. for 2 hoursor 24 hours.
Following the appropriate treatment time, Nano-Glo® HiBiT Lytic Assay reagents were added to the cells per the manufacturer's instructions by adding 30ul of reagent per well, and 10 the luminescence signal was acquired by plate reader. Cells treated with DMSO only (no test compound treatment) were used as the negative control (N). Media only (no cells added) with Nano-Glo reagent addition was used as the background or positive control (P). The percent response of compound treated samples were calculated by subtracting out the background signal (P) and normalizing to the DMSO control (N) as follows. % Response=100 x (Treated Signal - Average (P))/(Average (N) - Average (P)).
Data were analyzed with a 4-parameter logistic fit to generate sigmoidal dose-response curves. […] The Emax, or maximum effect of each compound, represents the amount of residual protein remaining in the cell following compound treatment.
The experiment was conducted at least once for each compound. If the experiment was conducted multiple times, the data shown in the table is the average of the two or more experiments.

Compound | HiBIT-Degradation A375.10 BRAF 2 hours IP nM (2 hours) | DC50 [1] | Emax [2] | HiBIT-Degradation A375.10 BRAF 24 hours IP nM (24 hours) | DC50 [3] | Emax [4]
CCN(C)S(=O)(=O)Nc1ccc(F)c(Oc2ccc3ncn([C@H]4COC5(CCN(C(=O)CN6CCC(c7ccc(NC8CCC(=O)NC8=O)cc7S(=O)(=O)F)CC6)CC5)C4)c(=O)c3c2)c1C#N (stereo partly drawn) [drawing 1197] | *** (<= 1 μM is) | > 10000 nM | 60 to 95% | – | – | –
CCN(C)S(=O)(=O)Nc1ccc(F)c(Oc2ccc3ncn([C@@H]4COC5(CCN(C(=O)CN6CCC(c7ccc(NC8CCC(=O)NC8=O)cc7S(=O)(=O)F)CC6)CC5)C4)c(=O)c3c2)c1C#N (stereo partly drawn) [drawing 1222] | – | – | – | *** (<= 1 μM is ***) | 1000 to 10000 nM | < 60%
CCN(C)S(=O)(=O)Nc1ccc(F)c(Oc2ccc3ncn([C@H]4COC5(CCN(C(=O)CN6CCC(c7ccc(C8CCC(=O)NC8=O)cc7OS(=O)(=O)F)CC6)CC5)C4)c(=O)c3c2)c1C#N (stereo partly drawn) [drawing 1190] | *** (<= 1 μM is) | < 1000 nM | < 60% | – | – | –
CCN(C)S(=O)(=O)Nc1ccc(F)c(Oc2ccc3ncn([C@@H]4COC5(CCN(C(=O)CN6CCC(c7ccc(OC8CCC(=O)NC8=O)cc7OS(C)(=O)=O)CC6)CC5)C4)c(=O)c3c2)c1C#N (stereo partly drawn) [drawing 1206] | ** (<10 μM and >1 μM is **) | > 10000 nM | 60 to 95% | – | – | –
CCN(C)S(=O)(=O)Nc1ccc(F)c(Oc2ccc3ncn([C@@H]4COC5(CCN(C(=O)CN6CCN(c7ccc(N8CCC(=O)NC8=O)cc7OS(=O)(=O)F)CC6)CC5)C4)c(=O)c3c2)c1C#N [drawing 1229] | – | – | – | ** (<10 μM and >1 μM is **) | 1000 to 10000 nM | < 60%
CCN(C)S(=O)(=O)Nc1ccc(F)c(Oc2ccc3ncn([C@@H]4COC5(CCN(C(=O)CN6CCC(c7ccc(OC8CCC(=O)NC8=O)cc7OS(=O)(=O)F)CC6)CC5)C4)c(=O)c3c2)c1C#N (stereo partly drawn) [drawing 1201] | *** (<= 1 μM is) | 1000 to 10000 nM | 60 to 95% | – | – | –
CCN(C)S(=O)(=O)Nc1ccc(F)c(Oc2ccc3ncn([C@H]4COC5(CCN(C(=O)CN6CCC(c7ccc(C8CCC(=O)NC8=O)cc7OS(=O)(=O)F)CC6)CC5)C4)c(=O)c3c2)c1C#N (stereo partly drawn) [drawing 1211] | – | – | – | *** (<= 1 μM is ***) | < 1000 nM | < 60%
CCN(C)S(=O)(=O)Nc1ccc(F)c(Oc2ccc3ncn([C@@H]4COC5(CCN(C(=O)CN6CCC(c7ccc(N8CCC(=O)NC8=O)cc7OS(C)(=O)=O)CC6)CC5)C4)c(=O)c3c2)c1C#N [drawing 1203] | *** (<= 1 μM is) | > 10000 nM | < 60% | – | – | –
CCN(C)S(=O)(=O)Nc1ccc(F)c(Oc2ccc3ncn([C@@H]4COC5(CCN(C(=O)CN6CCC(c7ccc(OC8CCC(=O)NC8=O)cc7OS(C)(=O)=O)CC6)CC5)C4)c(=O)c3c2)c1C#N (stereo partly drawn) [drawing 1230] | – | – | – | ** (<10 μM and >1 μM is **) | > 10000 nM | < 60%
CCN(C)S(=O)(=O)Nc1ccc(F)c(Oc2ccc3ncn([C@@H]4COC5(CCN(C(=O)CN6CCC(c7ccc(NC8CCC(=O)NC8=O)cc7OS(C)(=O)=O)CC6)CC5)C4)c(=O)c3c2)c1C#N (stereo partly drawn) [drawing 1208] | ** (<10 μM and >1 μM is **) | > 10000 nM | 60 to 95% | – | – | –
CCN(C)S(=O)(=O)Nc1ccc(F)c(Oc2ccc3ncn([C@H]4COC5(CCN(C(=O)CN6CCC(c7ccc(NC8CCC(=O)NC8=O)cc7OS(C)(=O)=O)CC6)CC5)C4)c(=O)c3c2)c1C#N (stereo partly drawn) [drawing 1217] | – | – | – | *** (<= 1 μM is ***) | < 1000 nM | < 60%
CCN(C)S(=O)(=O)Nc1ccc(F)c(Oc2ccc3ncn([C@H]4COC5(CCN(C(=O)CN6CCC(c7ccc(N8CCC(=O)NC8=O)cc7OS(=O)(=O)F)CC6)CC5)C4)c(=O)c3c2)c1C#N [drawing 1218] | – | – | – | *** (<= 1 μM is ***) | > 10000 nM | 60 to 95%
